Results reported in PMC8695591 (RSC Advances, 2021).

Target: cathepsin B (Homo sapiens, UniProt P07858)
Assay: Cathepsin B inhibition assay
Assay type: biochemical

CC(=O)N[C@@H](CC(C)C)C(=O)N[C@@H](CC(C)C)C(=O)N[C@H](C=O)CCCNC(=N)N [Leupeptin]
IC50: 7.5 µM
